# In patent US12527794B2, “Compositions, formulations, and methods for hair treatment” (Oddity Labs, LLC, priority 2021, dated 2026):
# System: human hair follicle dermal papilla cells (hFDPC)
# Assay: Human follicle dermal papilla cell (hFDPC) proliferation, cell viability assay
# Assay type: cell-based
# Settings: hFDPCs supplemented with BIO, BMP-2 and FGFβ
# Description: The ability of a compound or salt of the present disclosure to increase proliferation of human hair follicle dermal papilla cells (hFDPC) was tested using a cell viability assay, such as the Promega CellTiter-Glo® Luminescent Cell Viability Assay, MTT cell proliferation assay (ATCC® 30-1010K) or cell counting. […] In Table 8, A represents less than 20% of increased proliferation of hFDPCs, B represents 20-40%, and C represents larger than 40% of increased proliferation of hFDPCs. For this assay, hFDPCs were cultured on tissue culture-treated plastic and supplemented with 6-bromoindirubin-39-Oxime (BIO), recombinant bone morphogenetic protein-2 (BMP-2), and basic fibroblast growth factor (FGFβ), whose combination was previously found to preserve in situ dermal papilla gene signatures.
row,Compound,Percent Increase Proliferation of hFDPCs (%)
1,"C=CCc1cc(/C=C2\C(=O)NC(=O)N(c3ccc(C(C)C)cc3)C2=O)cc(OC)c1O [Compound I-1, 2,4,6(1H,3H,5H)-Pyrimidinetrione, 5-[[4-hydroxy-3-methoxy-5-(2-propen-1-yl)phenyl]methylene]-1-[4-(1-methylethyl)phenyl]-]",A (A represents less than 20% of increased proliferation of hFDPCs)
2,"C=CCc1cc(/C=C2\C(=O)NC(=O)N(c3cc(C)cc(C)c3)C2=O)cc(OCC)c1O [Compound I-2, 2,4,6(1H,3H,5H)-Pyrimidinetrione, 1-(3,5-dimethylphenyl)-5-[[3-ethoxy-4-hydroxy-5-(2-propen-1-yl)phenyl]methylene]-]",B (B represents 20-40%)
3,"C=CCc1cc(/C=C2\C(=O)NC(=O)N(c3cc(C)cc(C)c3)C2=O)cc(OC)c1O [Compound I-3, 2,4,6(1H,3H,5H)-Pyrimidinetrione, 1-(3,5-dimethylphenyl)-5-[[4-hydroxy-3-methoxy-5-(2-propen-1-yl)phenyl]methylene]-]",A (A represents less than 20% of increased proliferation of hFDPCs)
4,"C=CCc1cc(/C=C2\C(=O)NC(=O)N(c3ccc(C)c(C)c3)C2=O)cc(OC)c1O [Compound I-4, 2,4,6(1H,3H,5H)-Pyrimidinetrione, 1-(3,4-dimethylphenyl)-5-[[4-hydroxy-3-methoxy-5-(2-propen-1-yl)phenyl]methylene]]",A (A represents less than 20% of increased proliferation of hFDPCs)
5,"COc1cc(/C=C2\C(=O)NC(=O)N(Cc3ccccc3)C2=O)cc(OC)c1O [Compound I-5, 2,4,6(1H,3H,5H)-Pyrimidinetrione, 5-[(4-hydroxy-3,5-dimethoxyphenyl)methylene]-1-(phenylmethyl)-]",B (B represents 20-40%)
6,"C=CCN1C(=O)NC(=O)/C(=C\c2ccc(OC)cc2OC)C1=O [Compound I-6, 2,4,6(1H,3H,5H)-Pyrimidinetrione, 5-[(2,4-dimethoxyphenyl)methylene]-1-(2-propen-1-yl)-]",A (A represents less than 20% of increased proliferation of hFDPCs)
7,"C=CCOc1ccc(/C=C2/C(=O)NC(=O)N(CC=C)C2=O)cc1OC [Compound I-7, 2,4,6(1H,3H,5H)-Pyrimidinetrione, 5-[[3-methoxy-4-(2-propen-1-yloxy)phenyl]methylene]-1-(2-propen-1-yl)-]",A (A represents less than 20% of increased proliferation of hFDPCs)
8,"C=CCc1cc(C=C2C(=O)NC(=S)NC2=O)cc(OCC)c1O [Compound I-8, 4,6(1H,5H)-Pyrimidinedione, 5-[[3-ethoxy-4-hydroxy-5-(2-propen-1-yl)phenyl]methylene]dihydro-2-thioxo-]",B (B represents 20-40%)
9,"C=CCc1cc(C=C2C(=O)NC(=S)NC2=O)cc(OC)c1O [Compound I-9, 4,6(1H,5H)-Pyrimidinedione, dihydro-5-[[4-hydroxy-3-methoxy-5-(2-propen-1-yl)phenyl]methylene]-2-thioxo-]",B (B represents 20-40%)
10,"C=CCc1cc(/C=C2\C(=O)NC(=S)N(C)C2=O)cc(OC)c1OCC [Compound I-10, 4,6(1H,5H)-Pyrimidinedione, 5-[[4-ethoxy-3-methoxy-5-(2-propen-1-yl)phenyl]methylene]dihydro-1-methyl-2-thioxo-]",A (A represents less than 20% of increased proliferation of hFDPCs)
11,"COc1ccc(/C=C2\C(=O)NC(=O)N(C)C2=O)c(OC)c1 [Compound I-11, 2,4,6(1H,3H,5H)-Pyrimidinetrione, 5-[(2,4-dimethoxyphenyl)methylene]-1-methyl-, (5E)-]",A (A represents less than 20% of increased proliferation of hFDPCs)
12,"CCCCN1CCc2cc(/C=C3\C(=O)NC(=O)N(C)C3=O)ccc21 [Compound I-12, 2,4,6(1H,3H,5H)-Pyrimidinetrione, 5-[(1-butyl-2,3-dihydro-1H-indol-5-yl)methylene]-1-methyl-]",B (B represents 20-40%)
13,"CN1C(=O)NC(=O)/C(=C/c2cnc(N(C)C)nc2)C1=O [Compound I-13, 2,4,6(1H,3H,5H)-Pyrimidinetrione, 5-[[2-(dimethylamino)-5-pyrimidinyl]methylene]-1-methyl-]",A (A represents less than 20% of increased proliferation of hFDPCs)
14,"CN1C(=O)NC(=O)/C(=C\c2cccc(OCC(=O)O)c2)C1=O [Compound I-14, Acetic acid, 2-[3-[(tetrahydro-1-methyl-2,4,6-trioxo-5(2H)-pyrimidinylidene)methyl]phenoxy]-]",A (A represents less than 20% of increased proliferation of hFDPCs)
15,"COc1cc([N+](=O)[O-])cc(/C=C2\C(=O)NC(=O)N(C)C2=O)c1O [Compound I-15, 2,4,6(1H,3H,5H)-Pyrimidinetrione, 5-[(2-hydroxy-3-methoxy-5-nitrophenyl)methylene]-1-methyl-]",B (B represents 20-40%)
16,"C=CCc1cc(/C=C2\C(=O)NC(=O)N(C)C2=O)cc(OC)c1O [Compound I-16, 2,4,6(1H,3H,5H)-Pyrimidinetrione, 5-[[4-hydroxy-3-methoxy-5-(2-propen-1-yl)phenyl]methylene]-1-methyl-]",A (A represents less than 20% of increased proliferation of hFDPCs)
17,"Cc1cccc(Cn2cnc(NC(=O)c3cc(-c4cccnc4)nc4ccc(C)cc34)n2)c1 [III-2, 4-Quinolinecarboxamide, 6-methyl-N-[1-[(3-methylphenyl)methyl]-1H-1,2,4-triazol-3-yl]-2-(3-pyridinyl)-]",A (A represents less than 20% of increased proliferation of hFDPCs)
18,"CCOCCc1nnc(NC(=O)c2cc(-c3ccccc3)nc3ccccc23)s1 [III-4, 4-Quinolinecarboxamide, N-[5-(2-ethoxyethyl)-1,3,4-thiadiazol-2-yl]-2-phenyl-]",B (B represents 20-40%)
19,"CC(C)(C)Nc1nnc(SCc2cc(=O)oc3cc(O)ccc23)s1 [IV-1, 2H-1-Benzopyran-2-one, 4-[[[5-[(1,1-dimethylethyl)amino]-1,3,4-thiadiazol-2-yl]thio]methyl]-7-hydroxy-]",B (B represents 20-40%)
20,"CCC(C)Cc1c(C)sc2[nH]c(SCc3cc(=O)oc4cc(O)ccc34)nc(=O)c12 (stereo not shown) [IV-4, Thieno[2,3-d]pyrimidin-4(1H)-one, 2-[[(7-hydroxy-2-oxo-2H-1-benzopyran-4-yl)methyl]thio]-6-methyl-5-(2-methylbutyl)-]",A (A represents less than 20% of increased proliferation of hFDPCs)
21,"O=C(O)CC1SC(NN=Cc2ccc(OS(=O)(=O)c3ccc([N+](=O)[O-])cc3)cc2)=NC1=O (stereo not shown) [VI-6, 5-Thiazoleacetic acid, 4,5-dihydro-2-[2-[[4-[[(4-nitrophenyl)sulfonyl]oxy]phenyl]methylene] hydrazinyl]-4-oxo-]",A (A represents less than 20% of increased proliferation of hFDPCs)
22,"O=C1CNCc2[nH]c3ccccc3c2N1c1ccccc1 [VII-10, 1,4-Diazepino[6,5-b] indol-2(1H)-one, 3,4,5,6-tetrahydro-1-phenyl-]",B (B represents 20-40%)
